Measured values published in US20160367623A1, “AGONISTS OF GUANYLATE CYCLASE USEFUL FOR THE TREATMENT OF GASTROINTESTINAL DISORDERS, INFLAMMATION, CANCER AND OTHER DISORDERS” (priority 2015, published 2016).
Bridge positions count the residues as written; N and C are the ends. Ends that are not written are not given here.

Tested on: patients with chronic idiopathic constipation (CIC)
Assay: Second phase 3 CIC trial: change from baseline in CSBMs/week
Format: in vivo, human
Conditions: MRA
[1] = Week 3, 6 mg, ITT Population-Excluding Duplicate Patients
[2] = Week 4, 3 mg, ITT Population-Excluding Duplicate Patients
[3] = Week 4, 6 mg, ITT Population-Excluding Duplicate Patients
[4] = Week 5, 3 mg, ITT Population-Excluding Duplicate Patients
[5] = Week 5, 6 mg, ITT Population-Excluding Duplicate Patients
[6] = Week 6, 3 mg, ITT Population-Excluding Duplicate Patients
[7] = Week 6, 6 mg, ITT Population-Excluding Duplicate Patients
[8] = Week 7, 3 mg, ITT Population-Excluding Duplicate Patients
[9] = Week 7, 6 mg, ITT Population-Excluding Duplicate Patients
[10] = Week 8, 3 mg, ITT Population-Excluding Duplicate Patients

With “Asn^1-Asp^2-Glu^3-Cys^4-Glu^5-Leu^6-Cys^7-Val^8-Asn^9-Val^10-Ala^11-Cys^12-Thr^13-Gly^14-Cys^15-Leu^16 (NDECELCVNVACTGCL; disulfide 4-12, 7-15) [Plecanatide, uroguanylin analogue, guanylate cyclase-C agonist; (C4:C12, C7:C15) bicycle peptide]” the “Change from Baseline in CSBMs, Mean (SD)” value (Week 3, 6 mg, ITT Population) was 1.82 (2.949) CSBMs/week, the “Change from Baseline in CSBMs, Difference from Placebo” value (from here on “Change … Difference from Placebo”) [1] was 0.61 CSBMs/week and the “Change from Baseline in CSBMs, LS Mean (SE)” value (from here on “Change from Baseline … (SE)”) [1] was 1.83 (0.154) CSBMs/week. The “Change from Baseline in CSBMs, Mean (SD)” value [1] was 1.83 (2.958) CSBMs/week, the “Change from Baseline in CSBMs, Mean (SD)” value (Week 3, Active Combined, ITT Population-Excluding Duplicate Patients) was 1.89 (3.049) CSBMs/week and the “Change from Baseline in CSBMs, Mean (SD)” value (Week 3, Active Combined, ITT Population) was 1.88 (3.032) CSBMs/week. For the same substance, the “Change … Difference from Placebo” value (Week 4, 3 mg, ITT Population) was 0.91 CSBMs/week, the “Change from Baseline … (SE)” value (Week 4, 3 mg, ITT Population) was 2.16 (0.153) CSBMs/week and the “Change from Baseline in CSBMs, Mean (SD)” value (Week 4, 3 mg, ITT Population) was 2.19 (3.395) CSBMs/week. For the same substance, the “Change … Difference from Placebo” value [2] was 0.92 CSBMs/week, the “Change from Baseline … (SE)” value [2] was 2.20 (0.156) CSBMs/week and the “Change from Baseline in CSBMs, Mean (SD)” value [2] was 2.22 (3.418) CSBMs/week. For the same substance, the “Change … Difference from Placebo” value (Week 4, 6 mg, ITT Population) was 0.75 CSBMs/week, the “Change from Baseline … (SE)” value (Week 4, 6 mg, ITT Population) was 2.00 (0.152) CSBMs/week and the “Change from Baseline in CSBMs, Mean (SD)” value (Week 4, 6 mg, ITT Population) was 2.03 (3.243) CSBMs/week. For the same substance, the “Change … Difference from Placebo” value [3] was 0.75 CSBMs/week, the “Change from Baseline … (SE)” value [3] was 2.02 (0.154) CSBMs/week and the “Change from Baseline in CSBMs, Mean (SD)” value [3] was 2.03 (3.254) CSBMs/week. The “Change from Baseline in CSBMs, Mean (SD)” value (Week 4, Active Combined, ITT Population-Excluding Duplicate Patients) was 2.13 (3.335) CSBMs/week, the “Change from Baseline in CSBMs, Mean (SD)” value (Week 4, Active Combined, ITT Population) was 2.11 (3.318) CSBMs/week and the “Change … Difference from Placebo” value (Week 5, 3 mg, ITT Population) was 0.84 CSBMs/week. For the same substance, the “Change from Baseline … (SE)” value (Week 5, 3 mg, ITT Population) was 2.31 (0.154) CSBMs/week, the “Change from Baseline in CSBMs, Mean (SD)” value (Week 5, 3 mg, ITT Population) was 2.39 (3.375) CSBMs/week and the “Change … Difference from Placebo” value [4] was 0.85 CSBMs/week. For the same substance, the “Change from Baseline … (SE)” value [4] was 2.35 (0.157) CSBMs/week, the “Change from Baseline in CSBMs, Mean (SD)” value [4] was 2.43 (3.395) CSBMs/week and the “Change … Difference from Placebo” value (Week 5, 6 mg, ITT Population) was 0.48 CSBMs/week. For the same substance, the “Change from Baseline … (SE)” value (Week 5, 6 mg, ITT Population) was 1.95 (0.153) CSBMs/week, the “Change from Baseline in CSBMs, Mean (SD)” value (Week 5, 6 mg, ITT Population) was 1.99 (3.019) CSBMs/week and the “Change … Difference from Placebo” value [5] was 0.46 CSBMs/week. The “Change from Baseline … (SE)” value [5] was 1.97 (0.154) CSBMs/week, the “Change from Baseline in CSBMs, Mean (SD)” value [5] was 1.99 (3.025) CSBMs/week and the “Change from Baseline in CSBMs, Mean (SD)” value (Week 5, Active Combined, ITT Population-Excluding Duplicate Patients) was 2.20 (3.216) CSBMs/week. For the same substance, the “Change from Baseline in CSBMs, Mean (SD)” value (Week 5, Active Combined, ITT Population) was 2.18 (3.202) CSBMs/week, the “Change … Difference from Placebo” value (Week 6, 3 mg, ITT Population) was 1.01 CSBMs/week and the “Change from Baseline … (SE)” value (Week 6, 3 mg, ITT Population) was 2.32 (0.155) CSBMs/week. The “Change from Baseline in CSBMs, Mean (SD)” value (Week 6, 3 mg, ITT Population) was 2.43 (3.548) CSBMs/week, the “Change … Difference from Placebo” value [6] was 1.01 CSBMs/week and the “Change from Baseline … (SE)” value [6] was 2.35 (0.158) CSBMs/week. For the same substance, the “Change from Baseline in CSBMs, Mean (SD)” value [6] was 2.45 (3.571) CSBMs/week, the “Change … Difference from Placebo” value (Week 6, 6 mg, ITT Population) was 0.92 CSBMs/week and the “Change from Baseline … (SE)” value (Week 6, 6 mg, ITT Population) was 2.24 (0.153) CSBMs/week. The “Change from Baseline in CSBMs, Mean (SD)” value (Week 6, 6 mg, ITT Population) was 2.29 (3.384) CSBMs/week, the “Change … Difference from Placebo” value [7] was 0.93 CSBMs/week and the “Change from Baseline … (SE)” value [7] was 2.27 (0.155) CSBMs/week. For the same substance, the “Change from Baseline in CSBMs, Mean (SD)” value [7] was 2.31 (3.391) CSBMs/week, the “Change from Baseline in CSBMs, Mean (SD)” value (Week 6, Active Combined, ITT Population-Excluding Duplicate Patients) was 2.38 (3.478) CSBMs/week and the “Change from Baseline in CSBMs, Mean (SD)” value (Week 6, Active Combined, ITT Population) was 2.36 (3.464) CSBMs/week. For the same substance, the “Change … Difference from Placebo” value (Week 7, 3 mg, ITT Population) was 0.81 CSBMs/week, the “Change from Baseline … (SE)” value (Week 7, 3 mg, ITT Population) was 2.29 (0.155) CSBMs/week and the “Change from Baseline in CSBMs, Mean (SD)” value (Week 7, 3 mg, ITT Population) was 2.40 (3.413) CSBMs/week. The “Change … Difference from Placebo” value [8] was 0.83 CSBMs/week, the “Change from Baseline … (SE)” value [8] was 2.33 (0.158) CSBMs/week and the “Change from Baseline in CSBMs, Mean (SD)” value [8] was 2.44 (3.435) CSBMs/week. For the same substance, the “Change … Difference from Placebo” value (Week 7, 6 mg, ITT Population) was 0.82 CSBMs/week, the “Change from Baseline … (SE)” value (Week 7, 6 mg, ITT Population) was 2.31 (0.154) CSBMs/week and the “Change from Baseline in CSBMs, Mean (SD)” value (Week 7, 6 mg, ITT Population) was 2.38 (3.361) CSBMs/week. The “Change … Difference from Placebo” value [9] was 0.83 CSBMs/week, the “Change from Baseline … (SE)” value [9] was 2.34 (0.155) CSBMs/week and the “Change from Baseline in CSBMs, Mean (SD)” value [9] was 2.40 (3.369) CSBMs/week. The “Change from Baseline in CSBMs, Mean (SD)” value (Week 7, Active Combined, ITT Population-Excluding Duplicate Patients) was 2.42 (3.399) CSBMs/week, the “Change from Baseline in CSBMs, Mean (SD)” value (Week 7, Active Combined, ITT Population) was 2.39 (3.384) CSBMs/week and the “Change … Difference from Placebo” value (Week 8, 3 mg, ITT Population) was 1.01 CSBMs/week. The “Change from Baseline … (SE)” value (Week 8, 3 mg, ITT Population) was 2.52 (0.156) CSBMs/week, the “Change from Baseline in CSBMs, Mean (SD)” value (Week 8, 3 mg, ITT Population) was 2.67 (3.747) CSBMs/week and the “Change … Difference from Placebo” value [10] was 1.06 CSBMs/week. For the same substance, the “Change from Baseline … (SE)” value [10] was 2.56 (0.158) CSBMs/week, the “Change from Baseline in CSBMs, Mean (SD)” value [10] was 2.68 (3.765) CSBMs/week and the “Change … Difference from Placebo” value (Week 8, 6 mg, ITT Population) was 0.82 CSBMs/week. For the same substance, the “Change from Baseline … (SE)” value (Week 8, 6 mg, ITT Population) was 2.33 (0.154) CSBMs/week.
